# Several values for one entry are separate records, joined by “and”; a condition that tells them apart may be missing. Identical values can stand only once.
# Assays:
# [1] = system: T24 cell line; test: Cytotoxicity MTS assay, T24 cell line; type: cell-based; conditions: for OD490 Mean / OD490 Well 1 / OD490 Well 2 / OD490 Well 3: T24 cell line;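 as to OD490 Mean: blank control wells received 0.025% DMSO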;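 as to OD490 Well 1: blank control wells received 0.025% DMSO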;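 as to OD490 Well 2: blank control wells received 0.025% DMSO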;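 as to OD490 Well 3: blank control wells received 0.025% DMSO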
# In short: (§1)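 MTS antiproliferation; 1000 cells/well, 24 h pre-incubation; compound 0.5–100 µM final, 24 h exposure; vehicle 0.025% DMSO; monastrol positive control; MTS 2 h, 37 °C, 5% CO2; A490; IC50 by non-linear regression of % viability vs concentration; three independent duplicate runs.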
# [2] = system: L929 cell line; test: Cytotoxicity MTS assay, L929 cell line; type: cell-based; conditions: for OD490 values, Mean / OD490 values, Well 1 / OD490 values, Well 2 / OD490 values, Well 3 / OD490, single wells / OD490 Mean: L929 cell line; for OD490, single wells / OD490 Mean: MTS; for OD490, single wells: Well 1-3; for OD490 Mean: mean of 3 wells
# In short: as §1
smiles,measurement,setting,value
"CCOC(=O)C1=C(C)NC(=S)NC1c1cccc(O)c1 (centres unmarked) [Monastrol, monastrol, reference compound]",IC50,"[1]; Homo sapiens, T-24, MTS assay, 24 h exposure",129 µM
same,OD490 Mean,"[1]; 0.5μM, first assay",1.5184
same,OD490 Well 1,"[1]; 0.5μM, first assay",1.3936
same,OD490 Well 2,"[1]; 0.5μM, first assay",1.6757
same,OD490 Well 3,"[1]; 0.5μM, first assay",1.4858
same,OD490 Mean,"[1]; 0.5μM, second assay",1.7880
same,OD490 Well 1,"[1]; 0.5μM, second assay",1.9582
same,OD490 Well 2,"[1]; 0.5μM, second assay",1.7425
same,OD490 Well 3,"[1]; 0.5μM, second assay",1.6632
same,OD490 Mean,"[1]; 0.5μM, third assay",1.7701
same,OD490 Well 1,"[1]; 0.5μM, third assay",1.9582
same,OD490 Well 2,"[1]; 0.5μM, third assay",1.6852
same,OD490 Well 3,"[1]; 0.5μM, third assay",1.6669
same,OD490 Mean,"[1]; 1μM, first assay",1.8525
same,OD490 Well 1,"[1]; 1μM, first assay",1.8866
same,OD490 Well 2,"[1]; 1μM, first assay",1.8580
same,OD490 Well 3,"[1]; 1μM, first assay",1.8130
same,OD490 Mean,"[1]; 1μM, second assay",1.7956
same,OD490 Well 1,"[1]; 1μM, second assay",1.8475
same,OD490 Well 2,"[1]; 1μM, second assay",1.7952
same,OD490 Well 3,"[1]; 1μM, second assay",1.7442
same,OD490 Mean,"[1]; 1μM, third assay",1.6875
same,OD490 Well 1,"[1]; 1μM, third assay",1.4752
same,OD490 Well 2,"[1]; 1μM, third assay",1.8852
same,OD490 Well 3,"[1]; 1μM, third assay",1.7020
same,OD490 Mean,"[1]; 10μM, first assay",1.8245
same,OD490 Well 1,"[1]; 10μM, first assay",1.8141
same,OD490 Well 2,"[1]; 10μM, first assay",1.7506
same,OD490 Well 3,"[1]; 10μM, first assay",1.9088
same,OD490 Mean,"[1]; 10μM, second assay",1.6766
same,OD490 Well 1,"[1]; 10μM, second assay",1.5874
same,OD490 Well 2,"[1]; 10μM, second assay",1.5998
same,OD490 Well 3,"[1]; 10μM, second assay",1.8425
same,OD490 Mean,"[1]; 10μM, third assay",1.6451
same,OD490 Well 1,"[1]; 10μM, third assay",1.7425
same,OD490 Well 2,"[1]; 10μM, third assay",1.6625
same,OD490 Well 3,"[1]; 10μM, third assay",1.5302
same,OD490 Mean,"[1]; 25μM, first assay",1.7708
same,OD490 Well 1,"[1]; 25μM, first assay",1.7726
same,OD490 Well 2,"[1]; 25μM, first assay",1.7434
same,OD490 Well 3,"[1]; 25μM, first assay",1.7965
same,OD490 Mean,"[1]; 25μM, second assay",1.7004
same,OD490 Well 1,"[1]; 25μM, second assay",1.7416
same,OD490 Well 2,"[1]; 25μM, second assay",1.7723
same,OD490 Well 3,"[1]; 25μM, second assay",1.5874
same,OD490 Mean,"[1]; 25μM, third assay",1.7296
same,OD490 Well 1,"[1]; 25μM, third assay",1.7711
same,OD490 Well 2,"[1]; 25μM, third assay",1.6854
same,OD490 Well 3,"[1]; 25μM, third assay",1.7324
same,OD490 Mean,"[1]; 50μM, first assay",1.5876
same,OD490 Well 1,"[1]; 50μM, first assay",1.5372
same,OD490 Well 2,"[1]; 50μM, first assay",1.6410
same,OD490 Well 3,"[1]; 50μM, first assay",1.5845
same,OD490 Mean,"[1]; 50μM, second assay",1.6611
same,OD490 Well 1,"[1]; 50μM, second assay",1.6325
same,OD490 Well 2,"[1]; 50μM, second assay",1.6666
same,OD490 Well 3,"[1]; 50μM, second assay",1.6841
same,OD490 Mean,"[1]; 50μM, third assay",1.4371
same,OD490 Well 1,"[1]; 50μM, third assay",1.3024
same,OD490 Well 2,"[1]; 50μM, third assay",1.5270
same,OD490 Well 3,"[1]; 50μM, third assay",1.4820
same,OD490 Mean,"[1]; 100μM, first assay",1.3979
same,OD490 Well 1,"[1]; 100μM, first assay",1.3668
same,OD490 Well 2,"[1]; 100μM, first assay",1.4841
same,OD490 Well 3,"[1]; 100μM, first assay",1.3428
same,OD490 Mean,"[1]; 100μM, second assay",1.3537
same,OD490 Well 1,"[1]; 100μM, second assay",1.3658
same,OD490 Well 2,"[1]; 100μM, second assay",1.3365
same,OD490 Well 3,"[1]; 100μM, second assay",1.3587
same,OD490 Mean,"[1]; 100μM, third assay",1.3785
same,OD490 Well 1,"[1]; 100μM, third assay",1.4550
same,OD490 Well 2,"[1]; 100μM, third assay",1.3885
same,OD490 Well 3,"[1]; 100μM, third assay",1.2920
same,"OD490 values, Mean","[2]; 50μM, first assay",1.3431
same,"OD490 values, Well 1","[2]; 50μM, first assay",1.3844
same,"OD490 values, Well 2","[2]; 50μM, first assay",1.2943
same,"OD490 values, Well 3","[2]; 50μM, first assay",1.3505
same,"OD490 values, Mean","[2]; 50μM, second assay",1.3490
same,"OD490 values, Well 1","[2]; 50μM, second assay",1.3355
same,"OD490 values, Well 2","[2]; 50μM, second assay",1.2894
same,"OD490 values, Well 3","[2]; 50μM, second assay",1.4221
same,"OD490 values, Mean","[2]; 50μM, third assay",1.5704
same,"OD490 values, Well 1","[2]; 50μM, third assay",1.5524
same,"OD490 values, Well 2","[2]; 50μM, third assay",1.4714
same,"OD490 values, Well 3","[2]; 50μM, third assay",1.6874
same,"OD490 values, Mean","[2]; 100μM, first assay",1.0251
same,"OD490 values, Well 1","[2]; 100μM, first assay",1.0639
same,"OD490 values, Well 2","[2]; 100μM, first assay",1.0037
same,"OD490 values, Well 3","[2]; 100μM, first assay",1.0076
same,"OD490 values, Mean","[2]; 100μM, second assay",1.2469
same,"OD490 values, Well 1","[2]; 100μM, second assay",1.2354
same,"OD490 values, Well 2","[2]; 100μM, second assay",1.2789
same,"OD490 values, Well 3","[2]; 100μM, second assay",1.2265
same,"OD490 values, Mean","[2]; 100μM, third assay",1.4401
same,"OD490 values, Well 1","[2]; 100μM, third assay",1.4541
same,"OD490 values, Well 2","[2]; 100μM, third assay",1.4710
same,"OD490 values, Well 3","[2]; 100μM, third assay",1.3952
same,"OD490, single wells","[2]; 1μM, first assay",1.2759 and 1.1464 and 1.2212
same,OD490 Mean,"[2]; 1μM, first assay",1.2145
same,"OD490, single wells","[2]; 1μM, second assay",1.3847 and 1.2145 and 1.3654
same,OD490 Mean,"[2]; 1μM, second assay",1.3215
same,"OD490, single wells","[2]; 1μM, third assay",1.5474 and 1.5368 and 1.4987
same,OD490 Mean,"[2]; 1μM, third assay",1.5276
same,"OD490, single wells","[2]; 1.5μM, first assay",1.1568 and 1.0812 and 1.2095
same,OD490 Mean,"[2]; 1.5μM, first assay",1.1492
same,"OD490, single wells","[2]; 1.5μM, second assay",1.2478 and 1.3254 and 1.2897
same,OD490 Mean,"[2]; 1.5μM, second assay",1.2876
same,"OD490, single wells","[2]; 1.5μM, third assay",1.5823 and 1.5874 and 1.5332
same,OD490 Mean,"[2]; 1.5μM, third assay",1.5676
same,"OD490, single wells","[2]; 10μM, first assay",1.1741 and 1.1023 and 1.0651
same,OD490 Mean,"[2]; 10μM, first assay",1.1138
same,"OD490, single wells","[2]; 10μM, second assay",1.3582 and 1.6874 and 1.3354
same,OD490 Mean,"[2]; 10μM, second assay",1.4603
same,"OD490, single wells","[2]; 10μM, third assay",1.4784 and 1.4585 and 1.6874
same,OD490 Mean,"[2]; 10μM, third assay",1.5414
same,"OD490, single wells","[2]; 25μM, first assay",1.2192 and 1.1415 and 1.0377
same,OD490 Mean,"[2]; 25μM, first assay",1.1328
same,"OD490, single wells","[2]; 25μM, second assay",1.2214 and 1.3652
same,OD490 Mean,"[2]; 25μM, second assay",1.3173
same,"OD490, single wells","[2]; 25μM, third assay",1.6324 and 1.5241 and 1.7241
same,OD490 Mean,"[2]; 25μM, third assay",1.6269
same,IC50,"[2]; Mus musculus, L929, MTS assay, 24 h exposure, ordinary fibroblast, not cancer cells",> 150 µM

# Source: PMC8037182, “Solvothermal Synthesis of Multiple Dihydropyrimidinones at a Time as Inhibitors of Eg5” (Molecules, 2021)
